Patent US20040237130A1, “Embryogenic culture initiation of douglas-fir by maltose” (Weyerhaeuser Company, priority 2003, published 2004)

Columns and labels:
Douglas-fir explants = experiment: Initiation of embryonal suspensor masses (ESM) from Douglas-fir explants on BM1 initiation medium; assay type: cell-based; conditions: for Initiation (#) / Initiation (%): sugar 15000 mg/L in semi-solid BM1 initiation medium, 5-6 weeks, dark
Description: Cones were collected from four mother tree crosses (full-sib families) at a time when the embryos were in the pre-dome and dome stage of development. Cones were transferred on blue ice and stored in plastic bags in a cold room at 0-4° C. until needed for dissections. Seeds were removed from cones and dissected on the same day. After the seeds were removed, they were placed into a beaker containing pre-sterilized water. Seeds were divided into aliquots of 60-80 seeds. Each aliquot was placed into a separate pre-sterilized tea strainer before undergoing the following procedure. First, seeds were agitated in 10% Liqui-nox (+2 droppers full Tween-20 per liter) for 10 minutes. After rinsing the seeds in deionized water (18 megaohms) for 30 minutes, the tea strainers were exposed to 20% (v/v) H2O2 for 10 minutes in a fume hood on a rotary shaker (175 rpm). The H2O2 was diluted just before use with sterile, deionized water. Following application of the H2O2, each strainer was placed into a separate beaker of sterile deionized water, covered with foil, and moved into the laminar flow hood. All subsequent steps were carried out in the laminar flow hood. Each tea strainer was rinsed by agitating 4-8 times in each of 5 separate portions of sterile deionized water. The contents of each tea strainer were then dumped into a large petri dish containing a sterile filter paper and a few millimeters of sterile water (to help keep seeds from drying). Seeds were placed into 60×15 mm sterile petri plates containing 0.2 ml sterile deionized water each. Those seeds not dissected after sterilization were thrown out at the end of the day. Dissections were done in clean laminar flow hoods. Clean gloves were worn throughout the preparatory steps and dissection. Sterile forceps and scalpels were used to carefully split the seed, remove the female gametophyte and nucellus, and to split the female gametophyte. The embryo suspensor was pulled out, but kept attached to (or touching) the female gametophyte. Embryo and gametophyte were placed unto initiation medium BM1 so that the embryo was visible through the petri dish lid. Initiation: Half of the embryos and gametophytes (Group 1) from each cross were placed on a semi-solid BM1 initiation medium (Table 2), the other half (Group 2) were placed on semi-solid BM1 initiation medium in which the maltose was replaced with sucrose (15000 mg/L). The explants were held in an environment at 22°-25 C with a 24 hour dark photoperiod for a time of 5-6 weeks. The length of time depends on the particular genotype being cultured. Embryonal suspensor masses (ESM) (White, translucent, and mucilaginous) were observed beginning 2-3 weeks after inoculation. […] Initiation is defined as growth of an embryonal suspensor mass from an explant. Overall, the percentage of ESMs initiated from explants was 27% for Group A and 18% for Group B. Initiation improved for each of the 4 crosses tested when explants were cultured on initiation medium containing maltose (Group A). Overall, the number of explants initiated increased by 51% for explants cultured on initiation medium containing maltose, compared to explants cultured on initiation medium containing sucrose.

[1] = system: Douglas-fir embryonal suspensor masses; experiment: Establishment of embryonal suspensor masses on BM2 maintenance medium; assay type: cell-based; conditions: for Initiation (#) (Establishment Frequencies) / Initiation (%) (Establishment Frequencies) / Initiation (%) (Establishment Frequencies); proportion of established ESMs: sugar 30000 mg/L in solid BM2 maintenance medium, 12-15 subcultures
Description: Maintenance: After 5-6 weeks, ESMs from Group A were subcultured onto a solid BM2 maintenance medium (Table 2), and ESMs from Group B were subcultured unto a BM2 maintenance medium in which the maltose was replaced with sucrose (30000 mg/L). The maintenance medium differs from the initiation medium in that the growth hormones (both auxins and cytokinins) are reduced by at least a full order of magnitude. Osmolality of this medium was typically raised from that of the initiation medium to about 180 mM/kg or higher (typically within the range of about 180-400 mM/kg) by increasing the concentration of myo-inositol to 0.5% w/v. The temperature and photoperiod were again 22°-25 C. with 24 hours in the dark. ESMs were subcultured every 12 days onto fresh maintenance medium. The number of ESMs established from explants for each group after a total of 12-15 subcultures on maintenance is shown in Table 4. An ESM was considered to be established if it weighed between 250 mg and 500 mg (fresh weight) or if measured 1-2 cms in diameter, after several subcultures. The proportion of established ESMs obtained was 18% for explants in Group A and 11% for explants in Group B. The frequencies of established ESMs improved for each of the 4 crosses tested when explants were cultured on maintenance medium containing maltose (Group A). Overall, the number of established ESMs increased by 51% for explants cultured on maintenance medium containing maltose, compared to explants cultured on maintenance medium containing sucrose.

SMILES	Initiation (#) (Douglas-fir explants; Cross 1)	Initiation (%) (Douglas-fir explants; Cross 1)	Initiation (#) (Douglas-fir explants; Cross 2)	Initiation (%) (Douglas-fir explants; Cross 2)	Initiation (#) (Douglas-fir explants; Cross 3)	Initiation (%) (Douglas-fir explants; Cross 3)	Initiation (#) (Douglas-fir explants; Cross 4)	Initiation (%) (Douglas-fir explants; Cross 4)	Initiation (%) (Douglas-fir explants; Total of 4 crosses (overall))	Initiation (#) (Douglas-fir explants; Total of 4 crosses)	Initiation (#) (Establishment Frequencies) ([1]; Cross 1)	Initiation (%) (Establishment Frequencies) ([1]; Cross 1)	Initiation (#) (Establishment Frequencies) ([1]; Cross 2)	Initiation (%) (Establishment Frequencies) ([1]; Cross 2)	Initiation (#) (Establishment Frequencies) ([1]; Cross 3)	Initiation (%) (Establishment Frequencies) ([1]; Cross 3)	Initiation (#) (Establishment Frequencies) ([1]; Cross 4)	Initiation (%) (Establishment Frequencies) ([1]; Cross 4)	Initiation (#) (Establishment Frequencies) ([1]; Total of 4 crosses)	Initiation (%) (Establishment Frequencies); proportion of established ESMs ([1]; Total of 4 crosses)	other results
OC[C@H]1O[C@H](O[C@H]2[C@H](O)[C@@H](O)C(O)O[C@@H]2CO)[C@H](O)[C@@H](O)[C@@H]1O (mixture of isomers) [Group A, maltose]	63 #	46%	30 #	28%	21 #	19%	13 #	12%	27%	127 #	36 #	26%	11 #	10%	20 #	18%	17 #	15%	84 #	18%	Initiation for each of the 4 crosses tested, compared with sucrose medium (Douglas-fir explants; each of 4 crosses): improved; increase in number of explants initiated compared to initiation medium containing sucrose (Douglas-fir explants; overall, 4 crosses): 51%; frequencies of established ESMs for each of the 4 crosses tested, compared with sucrose medium ([1]; each of 4 crosses): improved; increase in number of established ESMs compared to maintenance medium containing sucrose ([1]; overall, 4 crosses): 51%
OC[C@H]1O[C@@](CO)(O[C@H]2O[C@H](CO)[C@@H](O)[C@H](O)[C@H]2O)[C@@H](O)[C@@H]1O [Group B, sucrose, reference compound]	42 #	30%	20 #	19%	14 #	13%	8 #	7%	18%	84 #	20 #	14%	6 #	6%	12 #	11%	13 #	12%	51 #	11%	
